Values quoted from earlier work as cited in PMC12308805, “Ultrahigh-Throughput Virtual Screening Strategies against PPI Targets: A Case Study of STAT Inhibitors” (Journal of Chemical Information and Modeling, 2025).

Test system: STAT3
Settings: sheet 6QHD_actives_decoys; retrospective screening set for STAT3 SH2 domain (PDB 6QHD); […]; ref DUD-E; cited from earlier work
For `COc1cc(/C=N\NC(=O)N/N=C/c2cc(OC)c(O)c([N+](=O)[O-])c2)cc([N+](=O)[O-])c1O` [Decoy599], the Type is listed as “Inactive (Decoy)”. In the case of `COc1ccccc1NS(=O)(=O)c1ccc(OC)c(NS(=O)(=O)c2ccc(C(=O)O)cc2)c1` [Decoy605], the Type is listed as “Inactive (Decoy)”. For `CCN1C(=O)[C@@](C)(C(=O)Nc2ccc(S(=O)(=O)Nc3nccs3)cc2)Oc2ccccc21` [Decoy608], the Type is listed as “Inactive (Decoy)”.

Same assay, conditions: sheet 6QHD_actives_decoys; retrospective screening set for STAT3 SH2 domain (PDB 6QHD); decoys generated with DUD-E and presumed inactive, not tested; ref DUD-E; cited from earlier work
For `CCOc1cc(/C=N/NC(=O)c2nnn(-c3nonc3N)c2CSC2=NCCS2)cc(Br)c1OCc1cccc(C)c1` [Decoy594], the Type is given as “Inactive (Decoy)”. In the case of `CCOC(=O)CNC(=O)CN1CCOCCOCCN(CC(=O)NCC(=O)OCC)CCOCCOCC1` [Decoy595], the Type is listed as “Inactive (Decoy)”. In the case of `CC[C@H]1OC(=O)[C@H](C)[C@@H](O[C@H]2OC[C@@](C)(OC)[C@@H](O)[C@@H]2C)[C@@H](C)[C@@H](O[C@H]2O[C@H](C)C[C@H](N(C)C)[C@H]2O)[C@](C)(O)C[C@H](C)/C(=N/O)[C@@H](C)[C@@H](O)[C@@]1(C)O` [Decoy596], the Type is given as “Inactive (Decoy)”. For `Cc1cc(C)n(CCCNC(=O)c2cc(=O)[nH]c3ccc(S(=O)(=O)N4CCOCC4)cc23)n1` [Decoy597], the Type is listed as “Inactive (Decoy)”. In the case of `CC(C)(C)c1cc(Br)cc([C@@H](CN(C(=O)CN)C(=O)c2cc(O)cc(N=C3NCC(O)CN3)c2)C(=O)O)c1` (some centres unmarked) [Decoy598], the Type is given as “Inactive (Decoy)”. For `CCOc1cc(N2CCOCC2)c(OCC)cc1NC(=O)c1oc2ccccc2c1CSc1ncn[nH]1` [Decoy600], the Type is listed as “Inactive (Decoy)”. In the case of `C=CCn1c(CCCN2C(=O)c3cccc4cccc(c34)C2=O)nnc1SCC(=O)Nc1ccc(S(N)(=O)=O)cc1` [Decoy601], the Type is listed as “Inactive (Decoy)”. For `Cc1ccc(S(=O)(=O)NCC(=O)N/N=C/c2ccc(OC(=O)c3ccccc3)cc2OC(=O)c2ccccc2)cc1` [Decoy602], the Type is listed as “Inactive (Decoy)”. For `CCCCCN(C(=O)Cn1c(=O)n(CC)c(=O)c2ccccc21)c1c(N)n(CCCC)c(=O)[nH]c1=O` [Decoy603], the Type is listed as “Inactive (Decoy)”. For `CC[C@@H]1Oc2ccc(S(=O)(=O)N3CCN(C(=O)CNC(=O)c4cccs4)CC3)cc2NC1=O` [Decoy604], the Type is given as “Inactive (Decoy)”. For `COc1ccc(C[C@@H]2COC(=O)[C@@H]2Cc2ccc(O[C@@H]3O[C@H](CO)[C@@H](O)[C@H](O)[C@H]3O)c(OC)c2)cc1OC` [Decoy606], the Type is given as “Inactive (Decoy)”. For `CC(=O)N[C@H]1[C@H]([C@H](O)[C@H](O)CO)O[C@](O[C@H]2[C@@H](O)[C@@H](CO)O[C@@H](O[C@H]3[C@H](O)[C@@H](O)[C@H](NC(C)=O)O[C@@H]3CO)[C@@H]2O)(C(=O)O)C[C@@H]1O` [Decoy607], the Type is listed as “Inactive (Decoy)”. In the case of `CCOC(=O)Cn1nnnc1[C@@H](CC)N(CCc1cccc(C)c1)Cc1cc2cc(OCC)ccc2[nH]c1=O` [Decoy609], the Type is listed as “Inactive (Decoy)”. In the case of `Cc1ccc(S(=O)(=O)NCc2ccco2)cc1C(=O)NNC(=O)c1nn(-c2ccccc2)cc1O` [Decoy610], the Type is listed as “Inactive (Decoy)”. For `C=C1CC[C@@H]2[C@](C)(CC[C@H](O)[C@@]2(C)CO[C@H]2O[C@@H](CO[C@H]3O[C@@H](CO)[C@@H](O)[C@H]3O)[C@@H](O)[C@@H](O)[C@H]2O)[C@@H]1CC/C(C)=C\CO` [Decoy611], the Type is given as “Inactive (Decoy)”. For `C=C1CC[C@H]2[C@](C)(CO[C@H]3O[C@@H](CO[C@H]4O[C@@H](CO)[C@@H](O)[C@H]4O)[C@@H](O)[C@@H](O)[C@H]3O)[C@@H](O)CC[C@]2(C)[C@H]1CC/C(C)=C\CO` [Decoy612], the Type is listed as “Inactive (Decoy)”. In the case of `O=C(O)c1cccc(NC(=O)[C@@H]2C[C@H](SS[C@@H]3CN[C@H](C(=O)Nc4cccc(C(=O)O)c4)C3)CN2)c1` [Decoy613], the Type is listed as “Inactive (Decoy)”. For `Cc1ccc(S(=O)(=O)CNC(=O)[C@@H](c2ccc3c(c2)OCO3)N(C)C(=O)c2cccc(O)c2O)cc1` [Decoy614], the Type is given as “Inactive (Decoy)”. For `COc1cc([N+](=O)[O-])ccc1NC(=O)C[C@H]1N=C(N/C(N)=N/c2ccccc2C)N=C1O` [Decoy615], the Type is given as “Inactive (Decoy)”. For `CC[C@@H](c1nnnn1CCOC)N(CCc1ccc(OC)c(OC)c1)Cc1cc2c(C)cc(C)cc2[nH]c1=O` [Decoy616], the Type is listed as “Inactive (Decoy)”.
